Source: PMC6123382, “Phosphorylation of the Amyloid-Beta Peptide Inhibits Zinc-Dependent Aggregation, Prevents Na,K-ATPase Inhibition, and Reduces Cerebral Plaque Deposition” (Frontiers in Molecular Neuroscience, 2018)
Blank lines part the entries; values can stand above or below the substance they belong to. Where no end group is shown, it is not given here.

Experiments:
[1] = target: Na^+/K^+-ATPase (α1β1 isozyme) (Anas platyrhynchos, UniProt Q6TG02+Q7ZYV1); experiment: Isothermal titration calorimetry of binding to Na+/K+-ATPase; design: species or system duck (salt glands); conditions: ITC, 25°C
Experimental: The purified preparation of Na^+/K^+-ATPase (α1β1 isozyme) was obtained from duck salt glands as described elsewhere ([Petrushanko et al., 2016]).
The thermodynamic parameters of amyloid peptides binding to Na^+/K^+-ATPase were measured using a MicroCal iTC200 instrument, as described elsewhere ([Mitkevich et al., 2012]; [Petrushanko et al., 2014]). Experiments were carried out at 25°C in 10 mM imidazole buffer (pH 7.5), containing 130 mM NaCl, 30 mM KCl, 3 mM MgCl2. Aliquots (2.6 μl) of ligands were injected into a 0.2-ml cell containing protein solution to achieve a complete binding isotherm. Protein concentration in the cell ranged from 10 to 20 μM, and ligand concentration in the syringe ranged from 100 to 200 μM. The resulting titration curves were fitted using the MicroCal Origin software, assuming one set of binding sites. Affinity constants (Ka), enthalpy variations (ΔH) and stoichiometry of binding (N) were determined and the Gibbs energy (ΔG) and entropy variations (ΔS) were calculated from the equation: ΔG = −RTlnKa = ΔH-TΔS.

[2] = cited from earlier work
Text: Recently, it has been shown that Aβ undergoes phosphorylation at Ser8 both in vitro and in vivo ([Kumar et al., 2011], [2013]). […] Recently, pS8-Aβ was obtained in vitro by Aβ phosphorylation with protein kinase A and was subsequently identified in vivo ([Kumar et al., 2011], [2013]). Based on the oligomeric state of pS8-Aβ derived from brain tissue of A ...

[3] = target: Na+/K+-ATPase (α1β1 isozyme) from duck salt glands (duck); experiment: ITC; peptide (100-200 μM, syringe) injected into Na+/K+-ATPase (10-20 μM, cell); 25°C; 10 mM imidazole pH 7.5, 130 mM NaCl, 30 mM KCl, 3 mM MgCl2; fit with one set of binding sites
[4] = 10 mM imidazole buffer (pH 7.5), 130 mM NaCl, 30 mM KCl, 3 mM MgCl2
[5] = pH 7.5, calculated from ΔG = −RTlnKa = ΔH-TΔS

Substance: LVFFAEDVGSNKGAIIGLMVGGVVIA [Aβ17–42]
detectability of binding to Na+,K+-ATPase [1, 4]: Binding was detectable
ΔH [1, 4]: -2.27 kcal/mol
Ka ([1]; 10 mM imidazole buffer (pH 7.5), 130 mM NaCl, 30 mM KCl, 3 mM MgCl2, one set of binding sites): 260000 M⁻¹
TΔS [1, 5]: 5.13 kcal/mol
ΔG [1, 5]: -7.4 kcal/mol

Substance: pS8-Aβ40: Aβ40 phosphorylated at Ser8 (literature)
aggregation in vitro ([2]; absence of divalent cations, ref Kumar et al. (2011)): accelerated aggregation

Substance: pS8-Aβ: phosphorylated Ser8-containing β-amyloid peptide (length not stated, literature)
aggregation in absence of zinc ions ([2]; in vitro, absence of zinc ions, ref Rezaei-Ghaleh et al., 2016, Jamasbi et al., 2017): fast-aggregating peptide species

Ka [3]: 260000 M⁻¹
Kd [3]: 3.8 µM
dH [3]: -2.27 kcal/mol
Substance: β-amyloid peptide 17–42 (Aβ17-42), C-terminal hydrophobic fragment
